Reference: the supplement of paper PMC10733146

Key:
Test in all cases: viability relative to DMSO control (fraction); higher = less drug effect (more viable cells)
Conditions in all cases: 48 h
[1] = system: primary AML patient cells (S089)
Outline: (§1)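 In 384-well plates with compounds pre-plated at five concentrations (one well per concentration), primary mononuclear tumour cells were plated at 4 × 10^4 cells per well. The cells came from blood or bone marrow by Ficoll isolation or from processed lymph node, and were used fresh or cryopreserved. Culture ran for 48 h at 37 °C and 5% CO2 in RPMI-1640 containing penicillin/streptomycin, L-glutamine and human serum. Viability was read as CellTiter-Glo luminescence, normalised to the median of 16 inner DMSO wells.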

[2] = system: primary AML patient cells (S085)
Outline: as §1

[3] = system: primary AML patient cells (S037)
Outline: as §1

[4] = system: primary DLBCL patient cells (S076)
Outline: as §1

[5] = system: primary AML patient cells (S025)
Outline: as §1

[6] = system: primary T-NHL patient cells (S058)
Outline: as §1

[7] = system: primary AML patient cells (S002)
Outline: as §1

[8] = system: primary AML patient cells (S011)
Outline: as §1

[9] = system: primary AML patient cells (S091)
Outline: as §1

[10] = system: primary AML patient cells (S081)
Outline: as §1

[11] = system: primary AML patient cells (S006)
Outline: as §1

[12] = system: primary AML patient cells (S021)
Outline: as §1

[13] = system: primary AML patient cells (S017)
Outline: as §1

[14] = system: primary DLBCL patient cells (S049)
Outline: as §1

[15] = system: primary CLL patient cells (S043)
Outline: as §1

[16] = system: primary AML patient cells (S012)
Outline: as §1

[17] = system: primary AML patient cells (S019)
Outline: as §1

## Nc1nc(F)nc2c1ncn2[C@@H]1O[C@H](CO)[C@@H](O)[C@@H]1O [Fludarabine]
[1]; 0.016 µM
  viability: 0.949
[1]; 0.08 µM
  viability: 1.18
[1]; 0.4 µM
  viability: 0.878
[1]; 2 µM
  viability: 0.597
[1]; 10 µM
  viability: 0.401
[2]; 0.016 µM
  viability: 1.02
[2]; 0.08 µM
  viability: 1.05
[2]; 0.4 µM
  viability: 0.561
[2]; 2 µM
  viability: 0.172
[2]; 10 µM
  viability: 0.112
[3]; 0.016 µM
  viability: 1.25
[3]; 0.08 µM
  viability: 0.999
[3]; 0.4 µM
  viability: 1.18
[3]; 2 µM
  viability: 0.643
[3]; 10 µM
  viability: 0.455
[4]; 0.016 µM
  viability: 1.05
[4]; 0.08 µM
  viability: 1.07
[4]; 0.4 µM
  viability: 0.772
[4]; 2 µM
  viability: 0.373
[4]; 10 µM
  viability: 0.203
[5]; 0.016 µM
  viability: 1.09
[5]; 0.08 µM
  viability: 0.901
[5]; 0.4 µM
  viability: 0.506
[5]; 2 µM
  viability: 0.275
[5]; 10 µM
  viability: 0.169
[6]; 0.016 µM
  viability: 1.15
[6]; 0.08 µM
  viability: 1.05
[6]; 0.4 µM
  viability: 0.829
[6]; 2 µM
  viability: 0.288
[6]; 10 µM
  viability: 0.133
[7]; 0.016 µM
  viability: 1.27
[7]; 0.08 µM
  viability: 1.07
[7]; 0.4 µM
  viability: 0.9
[7]; 2 µM
  viability: 0.457
[7]; 10 µM
  viability: 0.313
[8]; 0.016 µM
  viability: 0.942
[8]; 0.08 µM
  viability: 0.773
[8]; 0.4 µM
  viability: 0.543
[8]; 2 µM
  viability: 0.255
[8]; 10 µM
  viability: 0.0686
[9]; 0.016 µM
  viability: 0.958
[9]; 0.08 µM
  viability: 1
[9]; 0.4 µM
  viability: 0.737
[9]; 2 µM
  viability: 0.405
[9]; 10 µM
  viability: 0.361
[10]; 0.016 µM
  viability: 1.1
[10]; 0.08 µM
  viability: 1.05
[10]; 0.4 µM
  viability: 1.1
[10]; 2 µM
  viability: 1.02
[10]; 10 µM
  viability: 0.89
[11]; 0.016 µM
  viability: 1.02
[11]; 0.08 µM
  viability: 0.929
[11]; 0.4 µM
  viability: 0.529
[11]; 2 µM
  viability: 0.115
[11]; 10 µM
  viability: 0.0573
[12]; 0.016 µM
  viability: 1.04
[12]; 0.08 µM
  viability: 0.882
[12]; 0.4 µM
  viability: 0.579
[12]; 2 µM
  viability: 0.277
[12]; 10 µM
  viability: 0.183
[13]; 0.016 µM
  viability: 1.05
[13]; 0.08 µM
  viability: 1.03
[13]; 0.4 µM
  viability: 1.07
[13]; 2 µM
  viability: 0.854
[13]; 10 µM
  viability: 0.534
[14]; 0.016 µM
  viability: 1.12
[14]; 0.08 µM
  viability: 1.11
[14]; 0.4 µM
  viability: 1.04
[14]; 2 µM
  viability: 0.775
[14]; 10 µM
  viability: 0.375
[15]; 0.016 µM
  viability: 1.02
[15]; 0.08 µM
  viability: 0.982
[15]; 0.4 µM
  viability: 0.882
[15]; 2 µM
  viability: 0.614
[15]; 10 µM
  viability: 0.236
[16]; 0.016 µM
  viability: 1.02
[16]; 0.08 µM
  viability: 0.979
[16]; 0.4 µM
  viability: 0.987
[16]; 2 µM
  viability: 0.921
[16]; 10 µM
  viability: 0.753
[17]; 0.016 µM
  viability: 1.17
[17]; 0.08 µM
  viability: 0.967
[17]; 0.4 µM
  viability: 0.605
[17]; 2 µM
  viability: 0.301
[17]; 10 µM
  viability: 0.181
